# Reference: ChEMBL document CHEMBL4507275, “Data for DCP probe BI-2545” (2021)
# Tests used:
# [1] = test system: Tyrosine-protein kinase ABL1 (Homo sapiens), P00519 [T315I]; settings: Compound concentration 1000.0 nM
# [2] = target: Activin receptor type-2A (Homo sapiens) (UniProt P27037); settings: Compound concentration 1000.0 nM
# [3] = target: Atypical kinase COQ8B, mitochondrial (Homo sapiens) (UniProt Q96D53); settings: Compound concentration 1000.0 nM
# [4] = test system: ALK tyrosine kinase receptor (Homo sapiens), Q9UM73 [C1156Y]; settings: Compound concentration 1000.0 nM
# [5] = target: 5'-AMP-activated protein kinase catalytic subunit alpha-2 (Homo sapiens) (UniProt P54646); settings: Compound concentration 1000.0 nM
# [6] = target: Bone morphogenetic protein receptor type-1A (Homo sapiens) (UniProt P36894); settings: Compound concentration 1000.0 nM
# [7] = target: Calcium/calmodulin-dependent protein kinase type II subunit beta (Homo sapiens) (UniProt Q13554); settings: Compound concentration 1000.0 nM
# [8] = target: Calcium/calmodulin-dependent protein kinase type II subunit gamma (Homo sapiens) (UniProt Q13555); settings: Compound concentration 1000.0 nM
# [9] = target: Cyclin-dependent kinase 11A (Homo sapiens) (UniProt Q9UQ88); settings: Compound concentration 1000.0 nM
# [10] = target: Cyclin-dependent kinase 19 (Homo sapiens) (UniProt Q9BWU1); settings: Compound concentration 1000.0 nM
# [11] = target: Serine/threonine-protein kinase MRCK gamma (Homo sapiens) (UniProt Q6DT37); settings: Compound concentration 1000.0 nM
# [12] = test system: Epidermal growth factor receptor (Homo sapiens), P00533 [UNDEFINED MUTATION]; settings: Compound concentration 1000.0 nM
# [13] = target: Ephrin type-B receptor 2 (Homo sapiens) (UniProt P29323); settings: Compound concentration 1000.0 nM
# [14] = target: Ephrin type-B receptor 3 (Homo sapiens) (UniProt P54753); settings: Compound concentration 1000.0 nM
# [15] = target: Ephrin type-B receptor 4 (Homo sapiens) (UniProt P54760); settings: Compound concentration 1000.0 nM
# [16] = target: Ephrin type-B receptor 6 (Homo sapiens) (UniProt O15197); settings: Compound concentration 1000.0 nM
# [17] = target: Fibroblast growth factor receptor 3 (Homo sapiens) (UniProt P22607); settings: Compound concentration 1000.0 nM
# [18] = target: Mitogen-activated protein kinase 8 (Homo sapiens) (UniProt P45983); settings: Compound concentration 1000.0 nM
# [19] = target: Serine/threonine-protein kinase 10 (Homo sapiens) (UniProt O94804); settings: Compound concentration 1000.0 nM
# Sequence of Serine/threonine-protein kinase 10 (Homo sapiens) (O94804 whole entry, looked up): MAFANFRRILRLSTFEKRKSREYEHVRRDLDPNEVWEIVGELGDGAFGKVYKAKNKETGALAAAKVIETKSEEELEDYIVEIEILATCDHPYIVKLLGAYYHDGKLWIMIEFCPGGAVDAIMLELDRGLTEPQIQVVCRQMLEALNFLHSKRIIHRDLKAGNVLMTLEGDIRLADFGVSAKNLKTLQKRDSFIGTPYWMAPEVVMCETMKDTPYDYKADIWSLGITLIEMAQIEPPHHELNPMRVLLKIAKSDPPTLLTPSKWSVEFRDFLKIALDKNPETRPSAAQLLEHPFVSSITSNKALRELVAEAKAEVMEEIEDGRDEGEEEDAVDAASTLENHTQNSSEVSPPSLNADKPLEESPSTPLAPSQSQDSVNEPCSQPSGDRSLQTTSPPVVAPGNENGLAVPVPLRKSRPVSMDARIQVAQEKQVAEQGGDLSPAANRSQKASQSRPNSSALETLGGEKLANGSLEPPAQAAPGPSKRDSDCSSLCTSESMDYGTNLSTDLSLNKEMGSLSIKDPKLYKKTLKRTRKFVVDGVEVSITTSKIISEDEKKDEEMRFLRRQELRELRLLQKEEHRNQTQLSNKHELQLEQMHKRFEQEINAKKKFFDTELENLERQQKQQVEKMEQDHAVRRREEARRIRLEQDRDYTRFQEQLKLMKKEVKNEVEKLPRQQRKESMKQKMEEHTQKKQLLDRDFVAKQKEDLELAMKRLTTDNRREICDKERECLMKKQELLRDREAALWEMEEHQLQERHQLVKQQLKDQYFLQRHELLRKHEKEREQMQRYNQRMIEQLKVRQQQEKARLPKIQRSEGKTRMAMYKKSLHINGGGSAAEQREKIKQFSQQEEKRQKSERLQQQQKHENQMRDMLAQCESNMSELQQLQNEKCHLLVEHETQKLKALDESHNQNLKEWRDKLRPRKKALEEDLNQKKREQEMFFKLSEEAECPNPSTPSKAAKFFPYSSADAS
# [20] = test system: Leucine-rich repeat serine/threonine-protein kinase 2 (Homo sapiens), Q5S007 [G2019S]; settings: Compound concentration 1000.0 nM
# [21] = target: Mitogen-activated protein kinase kinase kinase kinase 3 (Homo sapiens) (UniProt Q8IVH8); settings: Compound concentration 1000.0 nM
# Sequence of Mitogen-activated protein kinase kinase kinase kinase 3 (Homo sapiens) (Q8IVH8 whole entry): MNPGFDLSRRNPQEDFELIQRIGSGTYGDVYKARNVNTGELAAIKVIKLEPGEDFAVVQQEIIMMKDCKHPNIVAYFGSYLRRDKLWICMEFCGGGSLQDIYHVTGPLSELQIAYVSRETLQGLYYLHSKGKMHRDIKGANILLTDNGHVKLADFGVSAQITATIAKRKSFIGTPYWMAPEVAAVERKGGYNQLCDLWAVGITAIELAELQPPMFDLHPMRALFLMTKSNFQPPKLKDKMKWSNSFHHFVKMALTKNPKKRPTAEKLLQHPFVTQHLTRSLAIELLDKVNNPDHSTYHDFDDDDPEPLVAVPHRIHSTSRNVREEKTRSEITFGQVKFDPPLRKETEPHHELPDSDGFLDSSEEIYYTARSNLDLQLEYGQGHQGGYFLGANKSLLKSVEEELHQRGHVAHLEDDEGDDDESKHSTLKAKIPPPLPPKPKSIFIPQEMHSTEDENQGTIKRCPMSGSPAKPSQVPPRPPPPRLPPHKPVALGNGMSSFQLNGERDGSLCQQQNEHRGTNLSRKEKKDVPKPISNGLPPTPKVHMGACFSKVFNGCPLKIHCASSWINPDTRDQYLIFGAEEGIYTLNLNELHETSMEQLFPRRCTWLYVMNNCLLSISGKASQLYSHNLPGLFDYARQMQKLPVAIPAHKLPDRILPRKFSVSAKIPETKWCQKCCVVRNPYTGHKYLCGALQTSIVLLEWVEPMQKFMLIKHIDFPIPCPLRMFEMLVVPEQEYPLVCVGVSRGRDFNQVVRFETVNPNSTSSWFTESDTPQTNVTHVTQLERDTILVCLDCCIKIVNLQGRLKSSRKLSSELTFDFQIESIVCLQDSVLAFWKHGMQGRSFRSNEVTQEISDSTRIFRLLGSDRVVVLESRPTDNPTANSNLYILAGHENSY
# [22] = target: MAP kinase-activated protein kinase 2 (Homo sapiens) (UniProt P49137); settings: Compound concentration 1000.0 nM
# Sequence of MAP kinase-activated protein kinase 2 (Homo sapiens) (P49137 whole entry, looked up): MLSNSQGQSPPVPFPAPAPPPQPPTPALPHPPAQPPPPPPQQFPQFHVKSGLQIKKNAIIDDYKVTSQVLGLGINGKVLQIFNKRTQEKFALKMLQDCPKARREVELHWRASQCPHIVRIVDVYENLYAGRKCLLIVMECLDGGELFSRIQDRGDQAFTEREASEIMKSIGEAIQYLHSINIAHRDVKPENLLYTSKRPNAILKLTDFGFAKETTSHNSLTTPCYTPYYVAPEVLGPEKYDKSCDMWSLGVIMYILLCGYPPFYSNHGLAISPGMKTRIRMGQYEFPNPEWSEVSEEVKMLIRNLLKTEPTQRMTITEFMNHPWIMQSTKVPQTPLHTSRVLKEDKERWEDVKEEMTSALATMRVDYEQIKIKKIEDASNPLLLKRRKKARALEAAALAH
# [23] = target: Dual specificity mitogen-activated protein kinase kinase 1 (Homo sapiens) (UniProt Q02750); settings: Compound concentration 1000.0 nM
# [24] = target: Maternal embryonic leucine zipper kinase (Homo sapiens) (UniProt Q14680); settings: Compound concentration 1000.0 nM
# [25] = target: Serine/threonine-protein kinase 24 (Homo sapiens) (UniProt Q9Y6E0); settings: Compound concentration 1000.0 nM
# [26] = target: Serine/threonine-protein kinase NLK (Homo sapiens) (UniProt Q9UBE8); settings: Compound concentration 1000.0 nM
# [27] = target: Serine/threonine-protein kinase OSR1 (Homo sapiens) (UniProt O95747); settings: Compound concentration 1000.0 nM
# [28] = target: Cyclin-dependent kinase 18 (Homo sapiens) (UniProt Q07002); settings: Compound concentration 1000.0 nM
# Sequence of Cyclin-dependent kinase 18 (Homo sapiens) (Q07002 whole entry, canonical isoform): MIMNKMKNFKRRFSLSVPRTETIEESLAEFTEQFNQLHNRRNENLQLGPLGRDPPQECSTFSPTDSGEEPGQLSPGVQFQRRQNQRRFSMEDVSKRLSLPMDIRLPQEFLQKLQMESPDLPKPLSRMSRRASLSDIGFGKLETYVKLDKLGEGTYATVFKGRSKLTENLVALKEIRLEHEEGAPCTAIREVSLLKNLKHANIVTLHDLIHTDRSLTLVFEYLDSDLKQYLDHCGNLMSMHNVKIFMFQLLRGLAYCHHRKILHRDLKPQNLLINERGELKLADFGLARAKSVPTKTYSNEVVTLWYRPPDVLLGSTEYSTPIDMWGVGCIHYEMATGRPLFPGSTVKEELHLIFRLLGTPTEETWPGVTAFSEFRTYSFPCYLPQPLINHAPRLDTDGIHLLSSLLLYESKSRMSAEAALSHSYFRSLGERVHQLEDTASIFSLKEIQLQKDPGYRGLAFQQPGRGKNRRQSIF
# [29] = test system: Phosphatidylinositol 4,5-bisphosphate 3-kinase catalytic subunit alpha isoform (Homo sapiens), P42336 [H1047Y]; settings: Compound concentration 1000.0 nM
# [30] = target: Serine/threonine-protein kinase PknB (Mycobacterium tuberculosis) (UniProt P9WI81); settings: Compound concentration 1000.0 nM
# Sequence of Serine/threonine-protein kinase PknB (Mycobacterium tuberculosis) (P9WI81 whole entry): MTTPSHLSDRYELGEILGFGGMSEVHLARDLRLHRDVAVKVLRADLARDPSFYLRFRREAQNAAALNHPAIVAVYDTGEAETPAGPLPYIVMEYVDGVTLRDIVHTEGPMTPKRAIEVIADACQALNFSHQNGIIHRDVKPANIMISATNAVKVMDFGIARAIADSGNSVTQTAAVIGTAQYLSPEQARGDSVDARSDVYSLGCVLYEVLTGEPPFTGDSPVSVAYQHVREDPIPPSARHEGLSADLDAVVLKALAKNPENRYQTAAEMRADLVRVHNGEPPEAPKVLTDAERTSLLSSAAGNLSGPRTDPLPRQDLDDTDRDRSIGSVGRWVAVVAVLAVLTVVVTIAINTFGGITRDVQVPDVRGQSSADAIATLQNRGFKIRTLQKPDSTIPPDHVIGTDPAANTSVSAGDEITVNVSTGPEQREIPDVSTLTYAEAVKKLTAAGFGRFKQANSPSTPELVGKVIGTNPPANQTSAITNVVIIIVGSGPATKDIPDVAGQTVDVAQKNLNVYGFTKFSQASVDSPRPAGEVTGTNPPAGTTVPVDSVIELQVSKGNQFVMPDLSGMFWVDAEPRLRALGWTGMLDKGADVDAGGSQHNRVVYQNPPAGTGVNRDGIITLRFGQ
# [31] = target: Serine/threonine-protein kinase D3 (Homo sapiens) (UniProt O94806); settings: Compound concentration 1000.0 nM
# [32] = target: cGMP-dependent protein kinase 1 (Homo sapiens) (UniProt Q13976); settings: Compound concentration 1000.0 nM
# Sequence of cGMP-dependent protein kinase 1 (Homo sapiens) (Q13976 whole entry): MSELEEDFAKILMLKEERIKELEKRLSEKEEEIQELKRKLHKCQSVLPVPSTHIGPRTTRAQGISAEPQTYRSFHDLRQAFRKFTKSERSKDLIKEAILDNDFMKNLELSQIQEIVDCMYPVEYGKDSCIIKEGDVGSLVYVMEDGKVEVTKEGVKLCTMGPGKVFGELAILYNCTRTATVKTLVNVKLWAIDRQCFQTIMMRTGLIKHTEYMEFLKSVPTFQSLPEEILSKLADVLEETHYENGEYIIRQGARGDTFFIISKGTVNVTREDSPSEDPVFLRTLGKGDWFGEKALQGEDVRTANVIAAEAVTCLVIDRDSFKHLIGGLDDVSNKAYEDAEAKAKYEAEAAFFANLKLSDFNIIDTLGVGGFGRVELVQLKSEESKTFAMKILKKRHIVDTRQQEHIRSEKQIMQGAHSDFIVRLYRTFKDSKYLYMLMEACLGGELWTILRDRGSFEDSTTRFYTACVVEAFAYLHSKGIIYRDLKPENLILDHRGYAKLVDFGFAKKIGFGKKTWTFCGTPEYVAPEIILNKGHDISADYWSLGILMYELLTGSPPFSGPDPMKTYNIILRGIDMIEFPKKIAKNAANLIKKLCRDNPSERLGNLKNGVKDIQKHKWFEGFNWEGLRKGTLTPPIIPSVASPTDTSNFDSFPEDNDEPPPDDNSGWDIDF
# [33] = target: cGMP-dependent protein kinase 2 (Homo sapiens) (UniProt Q13237); settings: Compound concentration 1000.0 nM
# [34] = target: Serine/threonine-protein kinase PRP4 homolog (Homo sapiens) (UniProt Q13523); settings: Compound concentration 1000.0 nM
# [35] = target: Rho-associated protein kinase 1 (Homo sapiens) (UniProt Q13464); settings: Compound concentration 1000.0 nM
# [36] = target: Ribosomal protein S6 kinase alpha-6 (Homo sapiens) (UniProt Q9UK32); settings: Compound concentration 1000.0 nM
# [37] = target: Serine/threonine-protein kinase Sgk3 (Homo sapiens) (UniProt Q96BR1); settings: Compound concentration 1000.0 nM
# Sequence of Serine/threonine-protein kinase Sgk3 (Homo sapiens) (Q96BR1 whole entry): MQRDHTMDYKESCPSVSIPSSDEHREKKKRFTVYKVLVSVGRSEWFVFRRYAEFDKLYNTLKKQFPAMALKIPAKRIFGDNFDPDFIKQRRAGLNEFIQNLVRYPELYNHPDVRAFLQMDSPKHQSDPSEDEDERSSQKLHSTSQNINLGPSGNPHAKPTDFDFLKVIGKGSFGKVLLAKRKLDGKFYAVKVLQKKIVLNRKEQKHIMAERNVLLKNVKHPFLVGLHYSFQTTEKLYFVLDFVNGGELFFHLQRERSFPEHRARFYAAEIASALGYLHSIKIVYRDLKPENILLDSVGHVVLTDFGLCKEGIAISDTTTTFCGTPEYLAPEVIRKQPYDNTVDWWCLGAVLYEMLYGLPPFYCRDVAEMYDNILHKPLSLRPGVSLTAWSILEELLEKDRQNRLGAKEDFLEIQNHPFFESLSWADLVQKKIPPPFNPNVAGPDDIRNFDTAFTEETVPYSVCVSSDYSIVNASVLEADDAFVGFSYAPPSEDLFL
# [38] = target: TGF-beta receptor type-2 (Homo sapiens) (UniProt P37173); settings: Compound concentration 1000.0 nM
# [39] = target: Tyrosine-protein kinase receptor Tie-1 (Homo sapiens) (UniProt P35590); settings: Compound concentration 1000.0 nM
# [40] = target: Serine/threonine-protein kinase TNNI3K (Homo sapiens) (UniProt Q59H18); settings: Compound concentration 1000.0 nM
# [41] = target: Transient receptor potential cation channel subfamily M member 6 (Homo sapiens) (UniProt Q9BX84); settings: Compound concentration 1000.0 nM
# [42] = target: Dual specificity protein kinase TTK (Homo sapiens) (UniProt P33981); settings: Compound concentration 1000.0 nM
# [43] = target: Tyrosine-protein kinase receptor TYRO3 (Homo sapiens) (UniProt Q06418); settings: Compound concentration 1000.0 nM
# [44] = target: Serine/threonine-protein kinase WNK3 (Homo sapiens) (UniProt Q9BYP7); settings: Compound concentration 1000.0 nM
# [45] = target: Muscarinic acetylcholine receptor M4 (Homo sapiens) (UniProt P08173); settings: Compound concentration 10.0 uM
# Sequence of Activin receptor type-2A (Homo sapiens) (P27037 whole entry): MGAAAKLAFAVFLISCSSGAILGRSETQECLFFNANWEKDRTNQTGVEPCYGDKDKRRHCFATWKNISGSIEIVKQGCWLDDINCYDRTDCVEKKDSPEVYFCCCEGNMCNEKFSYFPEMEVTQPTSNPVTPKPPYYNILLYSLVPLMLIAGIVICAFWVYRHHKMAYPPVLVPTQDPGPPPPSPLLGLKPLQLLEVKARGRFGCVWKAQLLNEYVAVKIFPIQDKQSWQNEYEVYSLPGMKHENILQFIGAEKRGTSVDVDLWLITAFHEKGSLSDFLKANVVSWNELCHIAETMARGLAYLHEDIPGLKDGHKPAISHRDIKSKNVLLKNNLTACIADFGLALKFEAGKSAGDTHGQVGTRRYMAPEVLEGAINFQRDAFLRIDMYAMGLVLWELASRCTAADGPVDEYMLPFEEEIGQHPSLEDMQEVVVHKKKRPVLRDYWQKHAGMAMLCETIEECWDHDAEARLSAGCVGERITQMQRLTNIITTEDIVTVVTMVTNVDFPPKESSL
structure (smiles),measurement,setting,value
O=C(NC[C@@H]1[C@H]2CN(C(=O)OCc3cc(C(F)(F)F)cc(C(F)(F)F)c3)C[C@@H]12)c1ccc2[nH]nnc2c1 [BI 2545],residual activity,[1],93%
same,residual activity,[2],92%
same,residual activity,[3],94%
same,residual activity,[4],94%
same,residual activity,[5],100%
same,residual activity,[6],100%
same,residual activity,[7],100%
same,residual activity,[8],85%
same,residual activity,[9],100%
same,residual activity,[10],89%
same,residual activity,[11],90%
same,residual activity,[12],83%
same,residual activity,[13],100%
same,residual activity,[14],81%
same,residual activity,[15],100%
same,residual activity,[16],100%
same,residual activity,[17],82%
same,residual activity,[18],90%
same,residual activity,[19],100%
same,residual activity,[20],91%
same,residual activity,[21],89%
same,residual activity,[22],100%
same,residual activity,[23],83%
same,residual activity,[24],97%
same,residual activity,[25],90%
same,residual activity,[26],100%
same,residual activity,[27],85%
same,residual activity,[28],100%
same,residual activity,[29],62%
same,residual activity,[30],80%
same,residual activity,[31],83%
same,residual activity,[32],83%
same,residual activity,[33],82%
same,residual activity,[34],100%
same,residual activity,[35],85%
same,residual activity,[36],86%
same,residual activity,[37],84%
same,residual activity,[38],100%
same,residual activity,[39],77%
same,residual activity,[40],80%
same,residual activity,[41],92%
same,residual activity,[42],91%
same,residual activity,[43],75%
same,residual activity,[44],100%
same,inhibition,[45],14.2%
Cc1nccc(COC(=O)N2C[C@@H]3[C@@H](CNC(=O)c4ccc5[nH]nnc5c4)[C@@H]3C2)n1 [BI 3017],residual activity,[1],95%
same,residual activity,[2],69%
same,residual activity,[3],100%
same,residual activity,[4],76%
same,residual activity,[5],97%
same,residual activity,[6],85%
same,residual activity,[7],90%
same,residual activity,[8],100%
same,residual activity,[9],100%
same,residual activity,[10],97%
same,residual activity,[11],92%
same,residual activity,[12],100%
same,residual activity,[13],100%
same,residual activity,[14],100%
same,residual activity,[15],100%
same,residual activity,[16],99%
same,residual activity,[17],93%
same,residual activity,[18],84%
same,residual activity,[19],100%
same,residual activity,[20],82%
same,residual activity,[21],66%
same,residual activity,[22],72%
same,residual activity,[23],92%
same,residual activity,[24],100%
same,residual activity,[25],90%
same,residual activity,[26],41%
same,residual activity,[27],100%
same,residual activity,[28],100%
same,residual activity,[29],82%
same,residual activity,[30],100%
same,residual activity,[31],100%
same,residual activity,[32],100%
same,residual activity,[33],100%
same,residual activity,[34],95%
same,residual activity,[35],71%
same,residual activity,[36],95%
same,residual activity,[37],100%
same,residual activity,[38],100%
same,residual activity,[39],100%
same,residual activity,[40],94%
same,residual activity,[41],85%
same,residual activity,[42],89%
same,residual activity,[43],100%
same,residual activity,[44],91%
same,inhibition,[45],16.1%
